This note sets out measurements from patent US10385047B2, “Histone demethylase inhibitors” (CELGENE QUANTICEL RESEARCH, INC., priority 2014, dated 2019).

In assay [1] the target is T1, JMJD2C (Homo sapiens, UniProt Q9H3R0).
T1 construct: purchased BPS Bioscience 50105; host or cells: baculovirus expression system (insect cells)
T1 sequence (Q9H3R0 2-372): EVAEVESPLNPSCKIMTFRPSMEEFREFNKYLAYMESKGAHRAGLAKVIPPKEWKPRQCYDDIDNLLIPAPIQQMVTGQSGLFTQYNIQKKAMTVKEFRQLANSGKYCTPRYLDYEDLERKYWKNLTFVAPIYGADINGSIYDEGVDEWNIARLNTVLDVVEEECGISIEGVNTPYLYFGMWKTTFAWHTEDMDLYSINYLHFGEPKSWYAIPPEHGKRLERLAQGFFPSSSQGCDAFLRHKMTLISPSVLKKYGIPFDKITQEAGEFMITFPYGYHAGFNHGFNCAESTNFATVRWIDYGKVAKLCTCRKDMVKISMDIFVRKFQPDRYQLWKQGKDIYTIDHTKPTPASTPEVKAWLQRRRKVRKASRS
As to the kind of experiment: In vitro enzyme inhibition assay for JMJD2C activity (TR-FRET). In kind it is biochemical. The method, then:
This assay determines the ability of a test compound to inhibit JMJD2C demethylase activity. Baculovirus expressed JMJD2C (GenBank Accession #BC143571, AA 2-372) was purchased from BPS Bioscience (Cat#50105).
The ability of test compounds to inhibit the activity of JMJD2C was determined in 384-well plate format under the following reaction conditions: 0.3 nM JMJD2C, 300 nM H3K9me3-biotin labeled peptide (Anaspec cat #64360), 2 μM alpha-ketoglutaric acid in assay buffer of 50 mM HEPES, pH7.3, 0.005% Brij35, 0.5 mM TCEP, 0.2 mg/ml BSA, 50 μM sodium L-ascorbate, and 2 μM ammonium iron(II) sulfate. Reaction product was determined quantitatively by TR-FRET after the addition of detection reagent Phycolink Streptavidin-allophycocyanin (Prozyme) and Europium-anti-di-methylated histone H3 lysine 9 (H3K9me2) antibody (PerkinElmer) in the presence of 5 mM EDTA in LANCE detection buffer (PerkinElmer) at a final concentration of 50 nM and 1 nM, respectively.
The assay reaction was initiated by the following: 2 μl of the mixture of 900 nM H3K9me3-biotin labeled peptide and 6 μM alpha-ketoglutaric acid with 2 μl of 11-point serial diluted inhibitor in 3% DMSO were added to each well of the plate, followed by the addition of 2 μl of 0.9 nM JMJD2C to initiate the reaction. The reaction mixture was incubated at room temperature for 30 minutes, and terminated by the addition of 6 μl of 5 mM EDTA in LANCE detection buffer containing 100 nM Phycolink Streptavidin-allophycocyanin and 2 nM Europium-anti-H3K9me2 antibody. Plates were read by EnVisionMultilabel Reader in TR-FRET mode (excitation at 320 nm, emission at 615 nm and 665 nm) after 1 hour incubation at room temperature. A ratio was calculated (665/615) for each well and fitted to determine inhibition constant (IC50).

In assay [2] the target is T2, JMJD3 (Homo sapiens, UniProt O15054).
T2 construct: purchased BPS Bioscience 50115; host or cells: baculovirus expression system (insect cells)
As to the kind of experiment: In vitro enzyme inhibition assay for JMJD3 activity (TR-FRET). The conditions noted are these: enzymatic assay conditions described herein. In kind it is biochemical. The method, then: This assay determines the ability of a test compound to inhibit JMJD3 demethylase activity. Baculovirus expressed JMJD3 (GenBank Accession #NM-001080424, AA1043-end) was purchased from BPS Bioscience (Cat#50115).
The enzymatic assay of JMJD3 activity is based upon Time Resolved-Fluorescence Resonance Energy Transfer (TR-FRET) detection. […] Reaction product was determined quantitatively by TR-FRET after the addition of detection reagent Phycolink Streptavidin-allophycocyanin (Prozyme) and Europium-anti-di-methylated histone H3 lysine 27 (H3K27me2) antibody (PerkinElmer) in the presence of 5 mM EDTA in LANCE detection buffer (PerkinElmer) at a final concentration of 50 nM and 1 nM, respectively.
The reaction mixture was incubated at room temperature for 30 minutes, and terminated by the addition of 6 μL of 5 mM EDTA in LANCE detection buffer containing 100 nM Phycolink Streptavidin-allophycocyanin and 2 nM Europium-anti-H3K27me2 antibody. Plates were read by EnVisionMultilabel Reader in TR-FRET mode (excitation at 320 nm, emission at 615 nm and 665 nm) after 1 hour incubation at room temperature. A ratio from the readout of 665/615 was calculated for each well and fitted to determine inhibition constant (IC50).

Where [3] appears, read: 0.3 nM JMJD2C, H3K9me3-biotin peptide, 2 μM alpha-ketoglutaric acid.
The mark [4] stands for this setting: enzymatic assay conditions described herein.

T2 sequence (O15054 1043-1682 isoform O15054-1): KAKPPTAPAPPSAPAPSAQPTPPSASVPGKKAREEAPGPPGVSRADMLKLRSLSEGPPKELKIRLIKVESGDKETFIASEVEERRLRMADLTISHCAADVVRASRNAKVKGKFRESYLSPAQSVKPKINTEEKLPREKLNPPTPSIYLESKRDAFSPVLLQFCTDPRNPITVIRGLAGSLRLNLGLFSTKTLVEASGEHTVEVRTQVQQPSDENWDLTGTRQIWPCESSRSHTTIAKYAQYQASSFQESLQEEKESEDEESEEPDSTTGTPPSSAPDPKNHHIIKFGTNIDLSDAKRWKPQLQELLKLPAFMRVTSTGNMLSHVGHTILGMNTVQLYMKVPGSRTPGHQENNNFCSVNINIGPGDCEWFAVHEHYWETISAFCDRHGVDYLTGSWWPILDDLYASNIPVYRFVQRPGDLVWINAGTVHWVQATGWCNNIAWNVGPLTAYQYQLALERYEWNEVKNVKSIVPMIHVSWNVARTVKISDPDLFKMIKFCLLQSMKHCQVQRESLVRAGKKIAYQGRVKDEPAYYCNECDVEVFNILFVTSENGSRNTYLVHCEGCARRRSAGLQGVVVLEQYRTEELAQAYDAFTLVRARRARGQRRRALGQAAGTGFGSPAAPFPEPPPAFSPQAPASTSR

`C[C@@H](O)c1ccc(N(C)c2ccc3c(c2)CCC[C@H]3CNc2cnccc2C(=O)O)cc1` (single isomer, unassigned) [Example 168] registered an IC50 in assay [1] (setting [3]) of 100 to 1000 nM.

In assay [1] (setting [3]), `C[C@H](O)c1ccc(N(C)c2ccc3c(c2)CCC[C@H]3CNc2cnccc2C(=O)O)cc1` (single isomer, unassigned) [Example 169] gave a concentration for half-maximal inhibition (IC50) of 100 to 1000 nM.

Regarding `O=C(O)c1ccncc1NC[C@@H]1CCOc2cc(C3CCCCC3)ccc21` [Example 35, 3-({[(4R)-7-cyclohexyl-3,4-dihydro-2H-1-benzopyran-4-yl]methyl}amino)pyridine-4-carboxylic Acid], the half-maximal inhibitory concentration (IC50) in assay [1] (setting [3]) was in the range of 100 to 1000 nM.

On to `O=C(O)c1ccncc1NC[C@H]1CCOc2cc(-c3ccccc3)ccc21` [Example 83 of U.S. Pat. No. 8,952,151, 3-({[(4S)-7-phenyl-3,4-dihydro-2H-1-benzopyran-4-yl]methyl}amino)pyridine-4-carboxylic acid], for which the IC50 in assay [2] turned out to be 19 nM; in assay [1] (setting [4]), 950 nM.

For the molecule `O=C(O)c1ccncc1NC[C@@H]1CCOc2cc(-c3ccccc3)ccc21` [Example 84 of U.S. Pat. No. 8,952,151, 3-({[(4R)-7-phenyl-3,4-dihydro-2H-1-benzopyran-4-yl]methyl}amino)pyridine-4-carboxylic acid], the half-maximal inhibitory concentration (IC50) in assay [2] came out at 2150 nM; in assay [1] (setting [4]) it was 150 nM.
